US8461328B2, “Tricyclic heterocyclic compounds, compositions and methods of use thereof” (Genentech, Inc., priority 2010, dated 2013)

Assays:
Type in all cases: biochemical
JAK2 = biological target: T1, JAK2 (Homo sapiens, UniProt O60674); assay: JAK2 inhibition (Table 4); settings: read-out: JAK2 Ki
T1 construct: made in house; host or cells: SF9 insect cells (baculovirus)

TYK2 = biological target: T2, TYK2 (Homo sapiens, UniProt P29597); assay: TYK2 inhibition (Table 4)
T2 construct: made in house; host or cells: SF9 insect cells (baculovirus)
T2 sequence (P29597 873-1187): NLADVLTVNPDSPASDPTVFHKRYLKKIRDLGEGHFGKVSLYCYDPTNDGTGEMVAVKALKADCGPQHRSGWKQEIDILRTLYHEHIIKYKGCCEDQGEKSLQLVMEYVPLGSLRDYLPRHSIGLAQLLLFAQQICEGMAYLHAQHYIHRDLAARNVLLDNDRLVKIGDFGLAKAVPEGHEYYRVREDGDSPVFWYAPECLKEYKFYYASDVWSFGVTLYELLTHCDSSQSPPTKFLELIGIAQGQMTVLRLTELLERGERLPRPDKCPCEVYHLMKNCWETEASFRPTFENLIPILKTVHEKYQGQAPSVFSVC

JAK3 = biological target: T3, JAK3 (Homo sapiens, UniProt P52333); assay: JAK3 inhibition (Table 4); settings: read-out: JAK3 Ki
T3 construct: made in house; host or cells: SF9 insect cells (baculovirus)
T3 sequence (P52333 783-1124): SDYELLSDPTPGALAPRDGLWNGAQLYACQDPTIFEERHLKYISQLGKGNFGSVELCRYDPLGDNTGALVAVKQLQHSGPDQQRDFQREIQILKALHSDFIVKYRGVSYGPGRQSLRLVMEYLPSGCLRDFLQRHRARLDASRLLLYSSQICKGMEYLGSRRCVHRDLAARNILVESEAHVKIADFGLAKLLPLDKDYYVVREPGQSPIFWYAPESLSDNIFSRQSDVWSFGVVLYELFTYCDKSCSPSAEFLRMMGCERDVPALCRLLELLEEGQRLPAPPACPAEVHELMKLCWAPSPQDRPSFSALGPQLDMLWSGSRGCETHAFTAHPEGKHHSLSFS

T1 sequence (O60674 812-1132): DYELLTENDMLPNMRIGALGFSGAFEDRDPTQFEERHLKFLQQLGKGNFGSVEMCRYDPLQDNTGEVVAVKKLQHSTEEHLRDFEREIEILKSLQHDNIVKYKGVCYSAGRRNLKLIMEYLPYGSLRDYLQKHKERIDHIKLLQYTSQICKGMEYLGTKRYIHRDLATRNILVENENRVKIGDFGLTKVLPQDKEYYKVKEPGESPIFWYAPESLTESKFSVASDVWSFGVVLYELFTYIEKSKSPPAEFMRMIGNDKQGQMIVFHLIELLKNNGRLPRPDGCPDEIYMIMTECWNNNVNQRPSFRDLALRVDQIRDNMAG

Row | Compound | Ki (JAK2) | Ki (TYK2) | Ki (JAK3)
1 | C[C@@H](O)c1nc2cnc3[nH]ccc3c2n1C1CCCCC1 [Example 671, (R)-1-(1-Cyclohexyl-1,6-dihydro-1,2,3,5,6-tetraaza-as-indacen-2-yl)-ethanol] | 18.1 nM | 2.47 nM | 22.4 nM
2 | COC(=O)N[C@H]1CC[C@H](n2cnc3cnc4[nH]ccc4c32)CC1 [Example 311, [4-(6H-1,3,5,6-Tetraaza-as-indacen-1-yl)-cyclohexyl]-carbamic acid methyl ester] | 14.1 nM | 59.8 nM | 91.6 nM
3 | c1ncc(CN2CCC(n3cnc4cnc5[nH]ccc5c43)CC2)cn1 [Example 52, 1-(1-Pyrimidin-5-ylmethyl-piperidin-4-yl)-1,6-dihydro-1,3,5,6-tetraaza-as-indacene] | 3.15 nM | 56 nM | 4.14 nM
4 | Cn1ccnc1CCc1nc2cnc3[nH]ccc3c2n1C1CCN(CCC#N)CC1 [Example 411, 3-(4-{2-[2-(1-Methyl-1H-imidazol-2-yl)-ethyl]-6H-1,3,5,6-tetraaza-as-indacen-1-yl}-piperidin-1-yl)-propionitrile] | 64.4 nM | 422 nM | 154 nM
5 | CC1(n2cnc3cnc4[nH]ccc4c32)CCNCC1 [Example 318, 1-(4-Methyl-piperidin-4-yl)-1,6-dihydro-1,3,5,6-tetraaza-as-indacene] | 1100 nM | 1900 nM | 976 nM
6 | CN1CCCCC1C(=O)N1CCC(n2cnc3cnc4[nH]ccc4c32)CC1 (single isomer, unassigned) [Example 196, (1-Methyl-piperidin-2-yl)-[4-(6H-1,2,3,5,6-tetraaza-as-indacen-1-yl)-piperidin-1-yl]-methanone] | 94.6 nM | 295 nM | 1980 nM
7 | FC(F)(F)CN1CCC(n2cnc3cnc4[nH]ccc4c32)CC1 [Example 175, 1-[1-(2,2,2-Trifluoro-ethyl)-piperidin-4-yl]-1,6-dihydro-1,2,3,5,6-tetraaza-as-indacene] | 4.6 nM | 19.2 nM | 38.1 nM
8 | CS(=O)(=O)NCc1nc2cnc3[nH]ccc3c2n1[C@@H]1CCCOC1 [Example 866, (R)—N-[1-(Tetrahydro-pyran-3-yl)-1,6-dihydro-1,3,5,6-tetraaza-as-indacen-2-ylmethyl]-methanesulfonamide] | 604 nM | 1060 nM | 1110 nM
9 | CC1(n2cnc3cnc4[nH]ccc4c32)CCN(CCC#N)CC1 [Example 330, 3-[4-Methyl-4-(6H-1,3,5,6-tetraaza-as-indacen-1-yl)-piperidin-1-yl]-propionitrile] | 122 nM | 271 nM | 269 nM
10 | N#C[C@@H]1CCN([C@H]2CC[C@H](n3cnc4cnc5[nH]ccc5c43)CC2)C1 [Example 596, Trans (R)-1-[4-(6H-1,2,3,5,6-tetraaza-as-indacen-1-yl)-cyclohexyl]-pyrrolidine-3-carbonitrile] | 5.51 nM | 17.4 nM | 67.4 nM
11 | O[C@H]1CC[C@H](n2nnc3cnc4[nH]ccc4c32)CC1 [Example 546, trans 4-(6H-1,2,3,5,6-Pentaaza-as-indacen-1-yl)-cyclohexanol] |  |  | 140 nM
12 | CC1CCCCC1n1c(CNS(C)(=O)=O)nc2cnc3[nH]ccc3c21 (stereo not drawn) [Example 917, N-[1-(2-Methyl-cyclohyl)-1,6-dihydro-1,3,5,6-tetraaza-as-indacen-2-ylmethyl]-methanesulfonamide] | 73.6 nM | 112 nM | 65 nM
13 | CS(=O)(=O)N1CCC(n2cnc3cnc4[nH]ccc4c32)CC1 [Example 54, 1-(1-Methanesulfonyl-piperidin-4-yl)-1,6-dihydro-1,3,5,6-tetraaza-as-indacene] | 2.99 nM | 18.7 nM | 84.1 nM
14 | N[C@H]1CC[C@H](n2nnc3cnc4[nH]ccc4c32)CC1 [Example 279, 4-(6H-1,2,3,5,6-Pentaaza-as-indacen-1-yl)-cyclohexylamine] |  |  | 239 nM
15 | CS(=O)(=O)NCc1nc2cnc3[nH]ccc3c2n1C1CCCC1 [Example 874, N-(1-Cyclopentyl-1,6-dihydro-1,3,5,6-tetraaza-as-indacen-2-ylmethyl)-methanesulfonamide] | 162 nM | 114 nM | 242 nM
16 | CS(=O)(=O)N[C@H]1CC[C@@H](n2cnc3cnc4[nH]ccc4c32)CC1 [Example 321, N-[4-(6H-1,3,5,6-Tetraaza-as-indacen-1-yl)-cyclohexyl]-methanesulfonamide] | 9.47 nM | 38.5 nM | 56.1 nM
17 | CS(=O)(=O)NCc1nc2cnc3[nH]ccc3c2n1C1CCN(CC(F)(F)F)CC1 [Example 692, N-{1-[1-(2,2,2-Trifluoro-ethyl)-piperidin-4-yl]-1,6-dihydro-1,2,3,5,6-tetraaza-as-indacen-2-ylmethyl}-methanesulfonamide] | 46.6 nM | 118 nM | 68.4 nM

Row | Compound | Ki (JAK2) | Ki (TYK2) | Ki (JAK3)
18 | CN1CCCCC1C(=O)N1CCC(n2cnc3cnc4[nH]ccc4c32)CC1 (single isomer, unassigned) [Example 196a, (1-Methyl-piperidin-2-yl)-[4-(6H-1,2,3,5,6-tetraaza-as-indacen-1-yl)-piperidin-1-yl]-methanone] | 1340 nM |  | 
19 | CC(C)(C)OC(=O)N[C@H]1CC[C@H](n2cnc3cnc4[nH]ccc4c32)CC1 [Example 107, Trans [4-(6H-1,3,5,6-tetraaza-as-indacen-1-yl)-cyclohexyl]-carbamic acid tert-butyl ester] | 20 nM | 216 nM | 132 nM
20 | CC(C)(C)OC(=O)N[C@@H]1CC[C@@H](n2cnc3cnc4[nH]ccc4c32)C1 [Example 134, [(1R,3R)-3-(6H-1,2,3,5,6-Tetraaza-as-indacen-1-yl)-cyclopentyl]-carbamic acid tert-butyl ester] | 4.21 nM | 62.4 nM | 32.8 nM
21 | C[C@@H](O)c1nc2cnc3[nH]ccc3c2n1[C@@H]1CCCN(CCC#N)C1 [Example 362, 3-{(R)-3-[2-((R)-1-Hydroxy-ethyl)-6H-1,3,5,6-tetraaza-as-indacen-1-yl]-piperidin-1-yl}-propionitrile] |  |  | 461 nM
22 | COC[C@H]1CC[C@H](n2c(CNS(C)(=O)=O)nc3cnc4[nH]ccc4c32)CC1 [Example 638, Trans N-[1-(4-methoxymethyl-cyclohexyl)-1,6-dihydro-1,2,3,5,6-tetraaza-as-indacen-2-ylmethyl]-methanesulfonamide] | 77.7 nM | 70.7 nM | 150 nM
23 | N#CCCN[C@H]1CC[C@@H](n2cnc3cnc4[nH]ccc4c32)CC1 [Example 319, 3-[4-(6H-1,3,5,6-Tetraaza-as-indacen-1-yl)-cyclohexylamino]-propionitrile] | 31.2 nM | 77.8 nM | 82.9 nM
24 | CS(=O)(=O)NCc1nc2cnc3[nH]ccc3c2n1C1CCN(CC(F)F)CC1 [Example 914, N-{1-[1-(2,2-Difluoro-ethyl)-piperidin-4-yl]-1,6-dihydro-1,3,5,6-tetraaza-as-indacen-2-ylmethyl}-methanesulfonamide] | 35.4 nM | 40.3 nM | 60.6 nM
25 | CS(=O)(=O)NCc1nc2cnc3[nH]ccc3c2n1C1CCN(Cc2ccccc2)CC1 [Example 202, N-[1-(1-Benzyl-piperidin-4-yl)-1,6-dihydro-1,2,3,5,6-tetraaza-as-indacen-2-ylmethyl]-methanesulfonamide] | 44.6 nM | 831 nM | 60.3 nM
26 | CC(C)(C)OC(=O)N[C@H]1CC[C@@H](n2cnc3cnc4[nH]ccc4c32)C1 [Example 136, [(1S,3R)-3-(6H-1,2,3,5,6-Tetraaza-as-indacen-1-yl)-cyclopentyl]-carbamic acid tert-butyl ester] | 18.3 nM | 147 nM | 291 nM
27 | CC1(n2cnc3cnc4[nH]ccc4c32)CCN(S(C)(=O)=O)CC1 [Example 332, 1-(1-Methanesulfonyl-4-methyl-piperidin-4-yl)-1,6-dihydro-1,3,5,6-tetraaza-as-indacene] | 7.95 nM | 31.1 nM | 71.4 nM
28 | c1cc2c(ncc3ncn(C4CCNCC4)c32)[nH]1 [Example 28, 1-Piperidin-4-yl-1,6-dihydro-1,3,5,6-tetraaza-as-indacene] |  | 80.1 nM | 217 nM
29 | C[C@@H](O)c1nc2cnc3[nH]ccc3c2n1[C@@H]1CCCN(CCC#N)C1 [Example 663, 3-{(R)-3-[2-((R)-1-Hydroxy-ethyl)-6H-1,2,3,5,6-tetraaza-as-indacen-1-yl]-piperidin-1-yl}-propionitrile] |  |  | 188 nM
30 | CO[C@H]1CC[C@H](n2c([C@@H](C)O)nc3cnc4[nH]ccc4c32)CC1 [Example 635, Trans (R)-1-[1-(4-methoxy-cyclohexyl)-1,6-dihydro-1,2,3,5,6-tetraaza-as-indacen-2-yl]-ethanol] |  |  | 371 nM
31 | CCC(O)c1nc2cnc3[nH]ccc3c2n1C1CCCCC1 (stereo not drawn) [Example 876, 1-(1-Cyclohexyl-1,6-dihydro-1,3,5,6-tetraaza-as-indacen-2-yl)-propan-1-ol] |  | 15.3 nM | 35.7 nM
32 | N#CCCN[C@H]1CC[C@H](n2nnc3cnc4[nH]ccc4c32)CC1 [Example 280, 3-[4-(6H-1,2,3,5,6-Pentaaza-as-indacen-1-yl)-cyclohexylamino]-propionitrile] |  |  | 127 nM
33 | C[C@@H](O)c1nc2cnc3[nH]ccc3c2n1C1CCC(CCC#N)CC1 (stereo partly drawn) [Example 1007, 3-{4-[2-((R)-1-Hydroxy-ethyl)-6H-1,3,5,6-tetraaza-as-indacen-1-yl]-cyclohexyl}-propionitrile] |  |  | 18.5 nM
